In paper PMC3094704, “S-Petasin, the Main Sesquiterpene of Petasites formosanus, Inhibits Phosphodiesterase Activity and Suppresses Ovalbumin-Induced Airway Hyperresponsiveness” (Evidence-based Complementary and Alternative Medicine : eCAM, 2011):

Tests used:
[1] = target: PDE3; assay: Inhibition of PDE3 activity and Lineweaver-Burk analysis; format: biochemical, guinea pig
Description: Activities of PDE1–5, partially separated from guinea pig lungs and hearts according to the method described by Ko et al., were measured with a two-step procedure according to the method of Thompson and Appleman, using cAMP with [^3H]-cAMP or cGMP with [^3H]-cGMP as substrates. The enzyme pμreparation (25 μL) was incubated for 30 min at 37°C in a total assay volume of […] containing 50 mM Tris-HCl (pH 7.4), 3 mM MgCl2, 1 mM dithiothreitol, 0.05% BSA, 1 μM cAMP with 0.2 μCi [^3H]-cAMP as a substrate alone or in the presence of 0.1 units calmodulin with 10 μM CaCl2 or 5 μM cGMP, and 1 μM cGMP with 0.2 μCi [^3H]-cGMP as another substrate alone or in the presence of 0.1 units calmodulin with 10 μM CaCl2. […] The reagents and homogenate were mixed on ice, and the reaction was initiated by transferring the mixture to a water bath at 37°C. Following a 30-min incubation, the reaction was stopped by transferring the reaction vessel to a bath of boiling water for 3 min. After cooling on ice, 20 μL of a 1 mg/mL solution of C. atrox snake venom was added to the reaction mixture, and the mixture was incubated at 37°C for 10 min. Unreacted [^3H]-cAMP or [^3H]-cGMP was removed by the addition of 500 μL of a 1-in-1 Tris-HCl (40 mM) buffer suspension of Dowex resin (1 × 8-200) with incubation on ice for 30 min. Each tube was then centrifuged for 2 min at 3700 g, and 150 μL of the supernatant was removed for liquid scintillation counting. […] The total protein in each fraction used was assayed according to the method described by Bradford. The PDE activities are shown as nmol/mg/min in the Lineweaver-Burk analysis.

[2] = tested on: OVA-sensitized and challenged BALB/c mice; assay: Airway hyperresponsiveness in vivo (Penh, whole-body plethysmography); parameters: species or system mouse
Description: (§1) Ten female BABL/c mice in each group were sensitized by an intraperitoneal (i.p.) injection of 20 μg of OVA emulsified in 2.25 mg aluminum hydroxide gel in a total volume of 100 μL on days 0 and 14. The mice were challenged via the airway by 1% OVA in saline for 30 min on Days 28, 29 and 30 by ultrasonic nebulization. Six weeks after the last of three primary OVA challenges, the mice were exposed to 1% OVA for 30 min by nebulization as a secondary challenge. AHR was assessed on Day 74 (48 h after 1% OVA provocation) in each group. […] For comparison, sham-treated mice were sensitized but challenged with saline instead of 1% OVA (non-challenged). The vehicle, a mixture of alcohol : DMSO : 30% HPβCD : saline (0.5 : 0.5 : 1 : 8 , v/v), or S-petasin was injected at a volume of 0.01 mL/g of body weight. AHR was measured in unrestrained animals by barometric plethysmography using a whole-body plethysmograph (WBP) and analyzed using software of Life Science Suite P3 Analysis Modules (Gould, LDS Test and Measurement LLC, Valley View, OH, USA). The mice were placed into the main chamber of the WBP, and the baseline enhanced pause (P enh) value was determined. Then the mice were nebulized first with phosphate-buffered saline (PBS), and subsequently with increasing doses (6.25–50 mg/mL) of MCh for 3 min for each nebulization, followed by readings of breathing parameters for 3 min after each nebulization with determination of P enh values. Twenty-four hours after the P enh determination, these mice were anesthetized with pentobarbital (50 mg/kg, i.p.), and lavaged via a tracheal tube with PBS (1 × 1.0 mL, 37°C). After lavage, blood was collected from the jugular vein and allowed to sit so that it would coagulate. The collected bronchoalveolar lavage fluid (BALF) and coagulated blood were, respectively, centrifuged at 630 g for 7 min and at 3700 g for 10 min at 4°C, respectively. After centrifugation, the supernatants of BALF and serum were stored at −20°C until the determinations of cytokines, including interleukin (IL)-2, IL-4, IL-5, tumor necrosis factor (TNF)-α and interferon (IFN)-γ by flow cytometric methods using mouse Th1/Th2 cytokine CBA kits, of total immunoglobulin E (IgE), and of total IgG2a using enzyme-linked immunosorbent assay (ELISA) kits (Pharmingen, San Diego, CA, USA) according to the respective recommendations of the manufacturer. OVA-specific IgE was measured as described previously with some modifications. Wells were coated with 100 μL of OVA (20 μg/mL) instead of the capture antibody. Levels are expressed in arbitrary units, where one arbitrary unit equals the optical density of the sample divided by the optical density of unchallenged mouse serum or BALF (standard). The pellet from BALF was re-suspended in ACK lysing buffer (1.658 g NH4Cl, 0.2 g KHCO3 and 1.44 mg EDTA in 200 mL of water) to lyse the residual erythrocytes in each sample. The number of inflammatory cells was counted using a hemocytometer (Hausser Scientific, Horsham, PA, USA). Cytospun slides were stained and differentiated in a blinded fashion by counting at least 100 cells under light microscopy.

[3] = tested on: OVA-sensitized and challenged BALB/c mice; assay: Cytokines in BALF (CBA flow cytometry); format: in vivo, mouse
Description: as §1

[4] = tested on: OVA-sensitized and challenged BALB/c mice; assay: IgG2a and IgE in serum and BALF (ELISA); format: in vivo, mouse
Description: as §1

[5] = tested on: cAMP-phosphodiesterase (PDE); parameters: method as in PMID 11345692; settings: cited from earlier work
[6] = 30 μmol/kg s.c., exception at 10 μmol/kg

SMILES: C=C(C)[C@@H]1C[C@@]2(C)C(=CC1=O)CC[C@@H](OC(=O)/C=C\SC)[C@@H]2C [S-Petasin]
- Ki ([1]; Lineweaver-Burk analysis, cAMP substrate, read-out: Ki on PDE isozyme 3): 25.3 ± 2 µM
- Mode of inhibition of PDE3 activity ([1]; Lineweaver-Burk analysis, S-petasin 3–30 μM, milrinone 0.3–3 μM): competitively inhibited
- IC50 ([1]; mean ± SEM (n), read-out: IC50 on PDE isozyme 3): 25.5 ± 1.5 µM
- Penh value at the baseline ([2]; 10 μmol/kg s.c.): 3.19 ± 0.47
- Penh value of PBS nebulization ([2]; 10 μmol/kg s.c.): 2.99 ± 0.22
- Penh value at the baseline ([2]; 30 μmol/kg s.c.): 3.13 ± 0.32
- Penh value of PBS nebulization ([2]; 30 μmol/kg s.c.): 3.02 ± 0.23
- Enhancement of the Penh value induced by MCh ([2]; 10–30 μmol/kg s.c., MCh at 50 mg/mL): dose-dependently and significantly attenuated
- Increase in IL-4 level in BALF [3, 6]: significantly suppressed
- Increase in IFN-γ level in BALF ([3]; 10–30 μmol/kg s.c.): significantly suppressed
- Increase in IL-2 level in BALF ([3]; 10–30 μmol/kg s.c.): significantly suppressed
- Increase in IL-5 level in BALF ([3]; 10–30 μmol/kg s.c.): significantly suppressed
- Increase in TNF-α level in BALF ([3]; 10–30 μmol/kg s.c.): significantly suppressed
- Reduction of total IgG2a level in the serum ([4]; 30 μmol/kg s.c.): significantly reversed
- Enhancement of total IgE in the BALF [4, 6]: dose-dependently and significantly suppressed
- Enhancement of OVA-specific IgE in the BALF ([4]; 10–30 μmol/kg s.c.): dose-dependently and significantly suppressed
- Enhancement of OVA-specific IgE in the serum ([4]; 10–30 μmol/kg s.c.): dose-dependently and significantly suppressed
- Enhancement of total IgE in the serum ([4]; 10–30 μmol/kg s.c.): dose-dependently and significantly suppressed
- Inhibition of cAMP-phosphodiesterase (PDE) activity [5]: inhibited
